Measurements taken from US9409905B2, “Antibacterial compounds and methods for use” (PTC THERAPEUTICS, INC., priority 2011, dated 2016).
Values after ≈ are worked out from the molar mass of the structure shown.

Assays:
[1] = tested on: Pseudomonas aeruginosa (P. aeruginosa) 27853; assay: Antibacterial activity, MIC (Table 5); type: cell-based; conditions: P. aeruginosa 27853, read-out: MIC, 27853
Outline: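 Activity was measured by microbroth dilution. The MIC, in μg/mL, is the lowest drug concentration that prevents macroscopically visible growth under the test conditions.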

[2] = tested on: Acinetobacter baumannii (A. baumannii) BAA747; assay: Antibacterial activity, MIC (Table 4); type: cell-based; conditions: A. baumannii BAA747, read-out: MIC, BAA747
Outline: (§1)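 Values are MICs in μg/mL, read as the lowest compound concentration at which no growth is visible by eye. They come from a microbroth dilution method.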

[3] = tested on: Klebsiella pneumoniae (K. pneumoniae) 35657; assay: Antibacterial activity, MIC (Table 4); type: cell-based; conditions: K. pneumoniae 35657, read-out: MIC, 35657
Outline: as §1

[4] = tested on: Escherichia coli (E. coli) BAS849; assay: Antibacterial activity, microbroth dilution MIC (Table 1); type: cell-based; conditions: microbroth dilution, super sensitive Gram-negative E. coli BAS849, read-out: MIC, BAS849
Outline: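 Broth microdilution against S. aureus 29213, E. coli 25922 and hypersensitive E. coli BAS849. MIC in μg/mL is the lowest drug concentration preventing macroscopically visible growth under test conditions.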

[5] = tested on: Staphylococcus aureus (S. aureus) 29213; assay: as above; type: cell-based; conditions: microbroth dilution, Gram-positive S. aureus 29213, read-out: MIC, 29213
Outline: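 Microbroth dilution was used. MIC, in μg/mL, is the lowest drug concentration preventing macroscopically visible growth under the test conditions.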

E. coli LZ3111 = assay: Antibacterial activity, MIC, quinolone resistant strain (Table 2); type: cell-based; conditions: Escherichia coli, LZ3111, read-out: MIC LZ3111
Outline: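 Microbroth dilution method; MIC (μg/mL) is the lowest drug concentration preventing macroscopically visible growth under test conditions.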

E. coli 25922 = assay: Antibacterial activity, microbroth dilution MIC (Table 1); type: cell-based, Escherichia coli; conditions: Escherichia coli; microbroth dilution; control Gram-negative E. coli 25922 strain; read-out: MIC, 25922
Outline: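 Each strain is exposed to test compound in a microbroth dilution series; visible growth is scored macroscopically, and the lowest growth-free concentration is recorded as MIC in μg/mL.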

K. pneumoniae MXX1232 = assay: Antibacterial activity, MIC, resistant strain (Table 4); type: cell-based; conditions: Klebsiella pneumoniae, MXX1232; resistant K. pneumoniae MMX1232, multi-drug resistant clinical isolate; read-out: MIC, MMX1232
Outline: as §1

A. baumannii MXX2240 = assay: as above; type: cell-based; conditions: Acinetobacter baumannii, MXX2240; resistant A. baumannii MMX2240, multi-drug resistant clinical isolate; read-out: MIC, MMX2240
Outline: as §1

| SMILES | MIC [1] [µg/mL] | MIC [2] [µg/mL] | MIC [3] [µg/mL] | MIC [4] [µg/mL] | MIC [5] [µg/mL] | MIC (E. coli LZ3111) [µg/mL] | MIC (E. coli 25922) [µg/mL] | MIC (K. pneumoniae MXX1232) [µg/mL] | MIC (A. baumannii MXX2240) [µg/mL] |
| --- | --- | --- | --- | --- | --- | --- | --- | --- | --- |
| Cc1c(-c2ccc3[nH]ccc3c2)[nH]c(=O)c(C(=O)O)c1O [Cpd 426, 4-hydroxy-6-(1H-indol-5-yl)-5-methyl-2-oxo-1,2-dihydropyridine-3-carboxylic acid] | 12.5 to 150 (≈ 44 to 528 µM) | 12.5 to 150 (≈ 44 to 528 µM) | 12.5 to 150 (≈ 44 to 528 µM) | 3.5 to 12.5 (≈ 12.3 to 44 µM) | 12.5 to 150 (≈ 44 to 528 µM) | < 1 | 12.5 to 150 (≈ 44 to 528 µM) | 12.5 to 150 (≈ 44 to 528 µM) | < 1 |
| Cc1c(-c2ccc3c(c2)CC(=O)N3)[nH]c(=O)c(C(=O)O)c1O [Cpd 427, 4-hydroxy-5-methyl-2-oxo-6-(2-oxoindolin-5-yl)-1,2-dihydropyridine-3-carboxylic acid] | 12.5 to 150 (≈ 41.6 to 500 µM) | 12.5 to 150 (≈ 41.6 to 500 µM) | 12.5 to 150 (≈ 41.6 to 500 µM) | 12.5 to 150 (≈ 41.6 to 500 µM) | 12.5 to 150 (≈ 41.6 to 500 µM) | 12.5 to 150 (≈ 41.6 to 500 µM) | 12.5 to 150 (≈ 41.6 to 500 µM) | 12.5 to 150 (≈ 41.6 to 500 µM) | 12.5 to 150 (≈ 41.6 to 500 µM) |
| CCc1c(-c2ccc3cc(N(C)C)ccc3c2)[nH]c(=O)c(C(=O)O)c1O [Cpd 428, 6-(6-(dimethylamino)naphthalen-2-yl)-5-ethyl-4-hydroxy-2-oxo-1,2-dihydropyridine-3-carboxylic acid] | 12.5 to 150 (≈ 35.5 to 426 µM) | 12.5 to 150 (≈ 35.5 to 426 µM) | 12.5 to 150 (≈ 35.5 to 426 µM) | < 1 | < 1 | 12.5 to 150 (≈ 35.5 to 426 µM) | 12.5 to 150 (≈ 35.5 to 426 µM) | 12.5 to 150 (≈ 35.5 to 426 µM) | 12.5 to 150 (≈ 35.5 to 426 µM) |
| CCc1c(-c2ccc3cc(C)cn3c2)[nH]c(=O)c(C(=O)O)c1O [Cpd 429, 5-ethyl-4-hydroxy-6-(2-methylindolizin-6-yl)-2-oxo-1,2-dihydropyridine-3-carboxylic acid] | 12.5 to 150 (≈ 40 to 480 µM) | 12.5 to 150 (≈ 40 to 480 µM) | 12.5 to 150 (≈ 40 to 480 µM) | 12.5 to 150 (≈ 40 to 480 µM) | 12.5 to 150 (≈ 40 to 480 µM) | 12.5 to 150 (≈ 40 to 480 µM) | 12.5 to 150 (≈ 40 to 480 µM) | 12.5 to 150 (≈ 40 to 480 µM) | 12.5 to 150 (≈ 40 to 480 µM) |
| CCc1c(-c2cnc3cc[nH]c3c2)[nH]c(=O)c(C(=O)O)c1O [Cpd 430, 5-ethyl-4-hydroxy-2-oxo-6-(1H-pyrrolo[3,2-b]pyridin-6-yl)-1,2-dihydropyridine-3-carboxylic acid] | 12.5 to 150 (≈ 41.8 to 501 µM) | 12.5 to 150 (≈ 41.8 to 501 µM) | 12.5 to 150 (≈ 41.8 to 501 µM) | 12.5 to 150 (≈ 41.8 to 501 µM) | 12.5 to 150 (≈ 41.8 to 501 µM) | 12.5 to 150 (≈ 41.8 to 501 µM) | 12.5 to 150 (≈ 41.8 to 501 µM) | 12.5 to 150 (≈ 41.8 to 501 µM) | 12.5 to 150 (≈ 41.8 to 501 µM) |
| Cc1c(-c2cnc3cc[nH]c3c2)[nH]c(=O)c(C(=O)O)c1O [Cpd 431, 4-hydroxy-5-methyl-2-oxo-6-(1H-pyrrolo[3,2-b]pyridin-6-yl)-1,2-dihydropyridine-3-carboxylic acid] | 12.5 to 150 (≈ 43.8 to 526 µM) | 12.5 to 150 (≈ 43.8 to 526 µM) | 12.5 to 150 (≈ 43.8 to 526 µM) | 12.5 to 150 (≈ 43.8 to 526 µM) | 12.5 to 150 (≈ 43.8 to 526 µM) | 12.5 to 150 (≈ 43.8 to 526 µM) | 12.5 to 150 (≈ 43.8 to 526 µM) | 12.5 to 150 (≈ 43.8 to 526 µM) | 12.5 to 150 (≈ 43.8 to 526 µM) |
| CCc1c(-c2ccc3c(c2)[nH]c2ccccc23)[nH]c(=O)c(C(=O)O)c1O [Cpd 432, 6-(9H-carbazol-2-yl)-5-ethyl-4-hydroxy-2-oxo-1,2-dihydropyridine-3-carboxylic acid] | 12.5 to 150 (≈ 35.9 to 431 µM) | 1 to 3.5 (≈ 2.87 to 10 µM) | 3.5 to 12.5 (≈ 10 to 35.9 µM) | < 1 | < 1 | 12.5 to 150 (≈ 35.9 to 431 µM) | 3.5 to 12.5 (≈ 10 to 35.9 µM) | 12.5 to 150 (≈ 35.9 to 431 µM) | 12.5 to 150 (≈ 35.9 to 431 µM) |
| CCc1c(-c2ccc3cc[nH]c3n2)[nH]c(=O)c(C(=O)O)c1O [Cpd 433, 5-ethyl-4-hydroxy-2-oxo-6-(1H-pyrrolo[2,3-b]pyridin-6-yl)-1,2-dihydropyridine-3-carboxylic acid] | 12.5 to 150 (≈ 41.8 to 501 µM) | 3.5 to 12.5 (≈ 11.7 to 41.8 µM) | 3.5 to 12.5 (≈ 11.7 to 41.8 µM) | < 1 | 12.5 to 150 (≈ 41.8 to 501 µM) | 12.5 to 150 (≈ 41.8 to 501 µM) | 12.5 to 150 (≈ 41.8 to 501 µM) | 12.5 to 150 (≈ 41.8 to 501 µM) | 12.5 to 150 (≈ 41.8 to 501 µM) |
| Cc1c(-c2ccc3cc[nH]c3n2)[nH]c(=O)c(C(=O)O)c1O [Cpd 434, 4-hydroxy-5-methyl-2-oxo-6-(1H-pyrrolo[2,3-b]pyridin-6-yl)-1,2-dihydropyridine-3-carboxylic acid] | 12.5 to 150 (≈ 43.8 to 526 µM) | 12.5 to 150 (≈ 43.8 to 526 µM) | 12.5 to 150 (≈ 43.8 to 526 µM) | 12.5 to 150 (≈ 43.8 to 526 µM) | 12.5 to 150 (≈ 43.8 to 526 µM) | 12.5 to 150 (≈ 43.8 to 526 µM) | 12.5 to 150 (≈ 43.8 to 526 µM) | 12.5 to 150 (≈ 43.8 to 526 µM) | 12.5 to 150 (≈ 43.8 to 526 µM) |
